The subject of experiment [1] is Mycobacterium marinum (Mm) in infection of Dictyostelium discoideum (Mm-inf). In words: Anti-infective assay, growth of Mm during infection of Dd (Mm-inf, luminescence). The experiment is classed as cell-based.
The test system of experiment [2] is Dictyostelium discoideum (Dd-inf). In words: microbe, parasite or virus in culture. The experiment is classed as cell-based. As to conditions: 20 μM; vehicle = 1, baseline = 0.
Experiment [3] deals with Mycobacterium marinum in broth (Mm-broth). In words: Antibacterial assay, growth of Mm in broth (Mm-broth, luminescence). The format is cell-based. The note with it: screen at 20 μM or dose-response curve.
Another experiment concerns Mm. In words: Checkerboard assay for synergy with antibiotics.
The test system of a further experiment is intracellular Mm. In words: Anti-infective assay with high-content microscopy, area of intracellular Mm. As to conditions: 20, 10, 2.5 μM, up to 48 h.
The subject of the next experiment is Dd Ax2(ka) cells. In words: Anti-infective assay with high-content microscopy, area of uninfected and infected Dd. As to conditions: 20, 10, 2.5 μM, up to 48 h.

Entries after “also recorded” stand apart in the source; their conditions may differ. Where two headings read alike, the source gives them in different places.

As usually defined, the IC50 is the midpoint of a concentration-inhibition curve.

Protocol for Dd Ax2(ka) cells: (§1) To monitor both the host and pathogen during the course of infection in a quantitative manner, Dd Ax2(ka) cells expressing mCherry knocked-in at the act5 locus ([Paschke et al., 2019]) were infected as described above with Mm WT stably expressing GFP (Msp:12-GFP). As described above, the day before the experiment, 10^7 amoebae were plated in a 10 cm Petri dish. On the day of the experiment, infection was performed, as described above, in HL5-C at MOI 25 by spinoculation. This was followed by eight washes in HL5-C to clear a maximum of non-internalized bacteria. The infected amoebae were detached mechanically and resuspended in HL5-C with 0.75 U/mL penicillin and 0.75 μg/mL of streptomycin (Gibco). Compounds were diluted in HL5-C to a 10x stock of the final assay concentration and pre-plated in 20 μL into the respective wells of a 96-well μ-plate (iBIDI 96-well μ-plate, 89,626). Subsequently, 7,500 cells per well were added in a volume of 180 μL. Every condition has been plated in at least three technical replicates and at least three biological replicates. The 96-well plate was sealed with a gas permeable seal (4titude, 4ti-0516/96) and centrifuged briefly.
(§2) Microscopy images were acquired at 25°C with a 40X plan Apo objective at selected time points over 48 h on the ImageXpress Micro C® automated microscope (Molecular Devices) in wide field mode. Focus was obtained automatically by autofocusing on the well bottom and plate bottom, at every well and every time point. In a grid of 4 × 5, 20 images per well, corresponding to a range of 500–6,000 cells, have been taken using the Texas-Red channel for Dd expressing mCherry and FITC channel for Mm expressing GFP in each experiment. Image analysis was performed using MetaXpress Custom Module editor software. Objects were effectively segmented by size and intensity. More precisely, amoebae were segmented using a “find blob module” using the Texas-Red channel. To segment the bacteria, the FITC image was first subjected to a light deconvolution with a top hat filter and then segmented using a “find blob module.” Intracellular bacteria and infected amoebae were determined by associating the mask of the amoebae and the bacteria. Several parameters such as intracellular and extracellular bacterial area sum, amoebae area sum, averaged and integrated fluorescence intensity and feature counts of bacteria and amoeba were extracted. The growth curves for the area sum of uninfected amoebae, infected amoebae and intracellular bacteria of independent biological replicates were averaged and plotted using GraphPad Prism (Version 8.0.1).
(§3) Both uninfected Dd and Dd infected with Mm were treated with 20, 10 or 2.5 μM of 17 or 19 and the infection was monitored by collecting microscopy images at five time points for up to 48 h.
Protocol for intracellular Mm: as §1, §2, §3

With `COc1cc(OC)cc(C2c3cc(C=Cc4cc(O)cc(O)c4)ccc3OC2c2ccc(O)cc2)c1` (stereo not shown) [compound 17], the IC50 came out at 18.1 µM in experiment [1] (72 h, AUC of luminescence normalized to vehicle, 4PL regression; read-out: IC50 Mm-inf) and 18.9 µM in experiment [1] (read-out: IC50 Mm-inf; 72 h, AUC of luminescence normalized to vehicle, 4PL regression). Further, the “activity on Mm-inf (in words)” value in experiment [1] (at 20 μM) was “passed again the 0.5 cut-off”; in experiment [1] (dose-response curve), “dose-dependent activity; also recorded: validated anti-infectives without antibiotic properties”. Besides, the activity at 20 µM in experiment [1] (read-out: normalized residual growth of Mm-inf, 20 μM; vehicle = 1, baseline = 0; hit cut-off <0.5) is 34%. In addition, the “normalized residual growth of Dd-inf” value in experiment [2] is listed as 0.91. Moreover, the “activity on Mm in broth (in words)” value in experiment [3] was “no activity on Mm in broth; also recorded: without antibiotic activity; also recorded: did not show any growth inhibition”. Also, in the experiment on Mm, the “synergy with rifampicin and isoniazid (in words)” value is listed as “did not find striking synergy”. The “growth of intracellular Mm (segmented area, in words)” value with intracellular Mm is “this effect was weaker”. Further, the “growth of infected Dd (segmented area, in words)” value in the experiment with Dd Ax2(ka) cells was “this effect was weaker”.

Values taken from PMC11443511, “Discovery of anti-infective compounds against Mycobacterium marinum after biotransformation of simple natural stilbenes by a fungal secretome” (Frontiers in Microbiology, 2024).
